Columns and labels:
hMPO = target: T1, hMPO (Homo sapiens, UniProt P05164); test: Alpha screen assay: inhibition of MPO-initiated nitration of the Apo-A1 peptide ([…]); assay type: biochemical; conditions: MPO 11.8 nM, pH 7.4, 45 min RT
T1 construct: purchased Biodesign A31804H
T1 sequence (P05164 49-745): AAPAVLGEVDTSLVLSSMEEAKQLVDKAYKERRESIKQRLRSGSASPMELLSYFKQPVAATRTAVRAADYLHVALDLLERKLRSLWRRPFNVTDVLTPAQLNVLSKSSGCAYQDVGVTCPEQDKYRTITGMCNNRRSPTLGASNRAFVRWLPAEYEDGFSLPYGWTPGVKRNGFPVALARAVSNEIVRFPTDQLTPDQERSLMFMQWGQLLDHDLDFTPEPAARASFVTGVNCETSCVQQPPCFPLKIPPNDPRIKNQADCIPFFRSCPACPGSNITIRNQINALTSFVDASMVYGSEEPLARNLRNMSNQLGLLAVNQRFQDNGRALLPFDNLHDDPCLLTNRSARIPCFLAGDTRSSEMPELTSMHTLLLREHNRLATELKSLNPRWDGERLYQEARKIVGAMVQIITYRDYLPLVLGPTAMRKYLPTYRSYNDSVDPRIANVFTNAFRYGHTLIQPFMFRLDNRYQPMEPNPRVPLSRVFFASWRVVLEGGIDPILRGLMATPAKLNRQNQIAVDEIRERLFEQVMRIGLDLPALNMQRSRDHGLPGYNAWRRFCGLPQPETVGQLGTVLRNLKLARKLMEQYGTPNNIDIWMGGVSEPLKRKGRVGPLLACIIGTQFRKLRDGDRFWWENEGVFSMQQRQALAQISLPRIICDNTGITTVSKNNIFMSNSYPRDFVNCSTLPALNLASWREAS
Method: In a typical experiment, MPO (11.8 nM final concentration) in 20 mM phosphate buffer pH 7.4, 10 % glycerol and 0.005 % gelatin (PB) is added to each well of a multi-well plate containing 20 μl PB ± compound (final concentration of DMSO = 0.9 %). The reaction is started by the addition of 20 μl PB containing 1.5 μM ApoAI peptide substrate, 300 μM diethylenetriaminepentaacetic acid (DTPA), 300 μM sodium nitrite, and 30 μM H2O2. The total reaction volume is 60 μl. The plates are incubated with agitation for 45 min at RT. The reaction is terminated with the addition of 20 μl of a stop solution containing 11.2 nM rabbit anti-nitrotyrosine antibody (final conc. of 2.8 nM), 100 μg/ml streptavidin donor beads, and 100 μg/ml protein A acceptor beads (final concentration of […]), FBS (1.6 % final concentration) in Superblock buffer. The plates are sealed, incubated in the dark for 1 h, and read on a Packard Fusion alpha plate reader.
Through a chloride independent pathway, MPO catalyzes the one electron oxidation of nitrite ions to nitrogen dioxide radicals which then […] protein amino acids like Tyrosine. We used the Apo-A1 peptide substrate ([…]) to follow the nitration of the Tyrosine (indicated by Y in the scheme below): MPO+H2O2→Compound INO2-+Compound I→NO2·+Compound II [drawing 1] Our initial experiments focused on identifying inhibitors that bind to the heme to inhibit the above catalytic action. A representative set of inhibitors is collected in Fig. 1a (strong binders, vide infra) and b (non binders, vide infra).

[1] = target: T2, native state (Fe3+) of hMPO (Homo sapiens, UniProt P05164); test: Low temperature ESR binding assay (binding-induced g shift, Rrelative); conditions: for ESR Rrelative: Rrelative = (Rbound - Rnative)/Rnative x 100, inhibitor:MPO 40:1, pH 6, 6 % DMSO, 4-7 K; for ESR Binding: class by Rrelative, inhibitor:MPO 40:1; for Δg: absolute difference between g X and g Y of the bound complex; for g X / g Y: electronic g value of the bound complex, X-band ESR, 5 K
T2 construct: purchased Athens Research and Technology
T2 sequence (P05164 49-745): T1 sequence (P05164 49-745)
Method: After 5-min. incubation at room temperature, the entire reaction mixture (0.235 mL) was transferred to the ESR quartz tubes. To avoid the quartz tubes breaking during the rapid freezing cycles, the ESR tubes were initially frozen in a 1:1 Isopentane-Cyclohexane mixture cooled with dry ice powder and then transferred to a liquid nitrogen Dewar to be queued up for ESR measurements. The reaction mixture contained a final concentration of 6 % DMSO. ESR spectra were recorded on a Varian E-12, X-band spectrometer equipped with an Air Products liquid helium cryostat.
The experimental g values correspond to the spin Hamiltonian pertinent to the high-spin ion (S = 5/2).1 H=DSZ2-1/3SS+1+E/DSX2-SY2+βgeS.Be where D and E are the eigen values of the axial and rhombic field components, i.e., the symmetry of the ligand (inhibitors approaching heme in this case). […] When the heme lodges inside the protein, the protein side chain amino acid (histidine) approaches the heme vicinity and either binds (axially) directly to the iron in the heme pocket. […] Thus, the fifth ligand leads to lower (rhombic) symmetries causing the signal at g ~ 6 to split. This non-tetragonal splitting of the heme is quantitated by the relationship,2 E/D=Δg/48 where ∆g represents the absolute difference between the gX and gY components. Alternatively, making use of the fact that E/D maximum value = 1/3, one can simplify the above expression as a percentage of rhombicity, R:3 R=Δg/16×100%. […] To rank-order molecules in terms of their ability to distort the heme pocket/plane environment, we used a ratio of total distortion in the bound complex w.r.t. distortion seen in the native unbound enzyme:4 Rrelative=Rbound-Rnative/Rnative×100.
From the relative rhombicities of the bound and unbound complex, a measure of the strength of binding could be derived. […] For the ease of classification, we have empirically defined those with 5 ≤ Rrelative ≥ 2 as weak binding; 15 ≥ Rrelative ≥ 10 as moderate binding; and 25 ≥ Rrelative ≥ 15 as strong binding (Table 2).

Human Myeloperoxidase = target: T3, Human Myeloperoxidase (Homo sapiens, UniProt P05164); test: X-ray co-crystal growth by soaking MPO crystals with inhibitor; conditions: crystals soaked with 50 mM inhibitor
T3 construct: purchased Lee Biosciences 426-10
T3 sequence (P05164 49-745): T1 sequence (P05164 49-745)
Method: Human Myeloperoxidase and co-crystals of MPO were crystallized and analyzed using methods similar to those described by Davey and Fenna. Briefly, hanging drops of 25 mg/mL MPO, 25 mM sodium acetate pH 5.0, 50 mM NaCl, 50 mM ammonium sulfate, 2 mM calcium chloride, and 3-10 % polyethylene glycol 8000 were set up at 21 °C over reservoir solutions containing 300 mM sodium chloride. Crystals of the space group P21 and having two MPO subunits per asymmetric unit grew with the aid of micro-seeding as very thin plates having a brownish orange tinge. Crystals were soaked with inhibitor compounds at a concentration of 50 mM, in a stabilizing buffer containing 18 % polyethylene glycol 8000, 56 mM ammonium sulfate, 2.2 mM calcium acetate, and 56 mM HEPES pH 7.0. Co-crystals were cryo-protected in a stabilizing buffer containing 22.2 % methylpentanediol prior to flash cooling in liquid nitrogen.
Diffraction data were collected at 100 K using Synchrotron beam line 31ID at the Advanced Photon Source (Argonne National Laboratory) and were integrated using MOSFLM v.6.2.6 [18]. […] Inhibitor binding to the MPO heme group was indicated by appropriately shaped peaks in the Fo–Fc electron density maps. The inhibitor was included in the model, and iterative cycles of manual model building with COOT [20] and restrained refinement with REFMAC v5.2.0019 [21] were used to complete the overall structure. Figures of the crystal structure were generated using PYMOL (www.pymol.org). […] The higher B-factors for the inhibitor molecules could be attributed to inhibitor occupancies of less than 1.0 or to higher degrees of thermal motion associated with the inhibitors. Lower than expected electron density peak heights were also observed for the Cl atom in the inhibitors, which could be due to the radiation damage to this X-Ray sensitive group.

[2] = ABTS radical cation decolorization assay to measure the antioxidant capacity; conditions: % inhibition at 20 uM single dose, read at 734 nm after 30 min
Method: The assay was modeled after the published procedure. Briefly, ABTS radical cation was prepared by adding 100 μl of 70 mM K2S2O8 to 10 ml ABTS, followed by vortexing and incubating at 37 °C water bath for 2 h. […] Trolox standards are dissolved in water. The reaction is started by adding the ABTS radical cation solution to the MPO inhibitors or Trolox (final concentration 20 μM). The plate is gently shaken for 1 min and then set on a bench top at room temperature for 30 min.

IC50 (hMPO) [µM] | ESR Rrelative [1] | ESR Binding [1] | X ray Cocrystal result (Human Myeloperoxidase) | Δg [1] | g X [1] | g Y [1] | Structure (SMILES) | % Anti oxidant potential [2] [%]
3.99 | 0 | No | No |  |  |  | S=c1[nH]nc(-c2ccncc2)o1 [LSN19450] | 85.8
160 | 2.4 | Weak (5 ≤ Rrelative ≥ 2 as weak binding) | No | 1.875 | 6.789 | 4.914 | O=C(O)c1n[nH]c2ccccc12 [LSN23500] | 0
0.698 | 3.3 | Weak (5 ≤ Rrelative ≥ 2 as weak binding) | No |  |  |  | Cc1c(N)n[nH]c1-c1ccccc1 [LSN27223] | 32.7
333 | 0.2 | No | No |  |  |  | Oc1nnc(-c2ccccc2)s1 [LSN227931] | 0

The next lines start with the compound.

Structure (SMILES) | IC50 (hMPO) [µM] | ESR Rrelative [1] | ESR Binding [1] | X ray Cocrystal result (Human Myeloperoxidase) | Δg [1] | g X [1] | g Y [1] | % Anti oxidant potential [2] [%]
O=C(NO)c1ccccc1O [LSN13243] | 5.9 | 14.7 | Moderate (15 ≥ Rrelative ≥ 10 as moderate binding) | Yes |  |  |  | 74.9
O=C1CC(c2ccc(Cl)cc2)=NN1 [LSN34893] | 0.219 | 0.2 | No | No |  |  |  | 53.4
Cc1cc(C)c2c(O)n[nH]c2n1 [LSN42503] | 0.168 | 0.3 | No | No |  |  |  | 82.5
Cc1cc(O)nc2[nH]nc(O)c12 [LSN66421] | 0.406 | 0.2 | No | No |  |  |  | 10.4
NC(=O)c1n[nH]cc1O [LSN104607] | 0.667 | 0 | No | No |  |  |  | 1.56
O=[N+]([O-])c1c(O)ncnc1O [LSN106019] | 538 | 29.2 | Strong (25 ≥ Rrelative ≥ 15 as strong binding) | Yes | 2.31 | 7.023 | 4.713 | 0
Cc1cc(C(F)(F)F)c(C#N)c(=O)[nH]1 [LSN131429] | 138 | -28.6 | Strong (25 ≥ Rrelative ≥ 15 as strong binding) | Yes | 1.344 | 6.559 | 5.215 | 9
Oc1n[nH]c2c1CCC2 [LSN386639] | 0.396 | 0.2 | No | No |  |  |  | 38.2
Sc1nnc(-c2cccnc2)o1 [LSN811183] | 73 | 16.5 | Strong (25 ≥ Rrelative ≥ 15 as strong binding) | Yes | 2.115 | 6.924 | 4.809 | 95.9
Fc1ccccc1-c1n[nH]c(=S)o1 [LSN2303506] | 27.9 | 21.7 | Strong (25 ≥ Rrelative ≥ 15 as strong binding) | Yes | 2.1759 | 6.9749 | 4.799 | 97.7
